Experiments:
[1] = tested on: 4T1 metastatic breast cancer cells; assay type: cell-based; settings: cisplatin 50 uM, PI fluorescence
Protocol: The cell death stain propidium iodide (PI) was added and the cells were observed by time-lapse videomicroscopy. Cytotoxicity was determined by measuring the PI fluorescence intensity at each time point using ImageJ (NIH).
Cells were observed by time-lapse videomicroscopy in the presence of the cell death dye propidium iodide.

[2] = tested on: various cancer cell lines; assay: Propidium iodide time-lapse cytotoxicity / mean time to death in various cancer cell lines infected with P. aeruginosa expressing exotoxin; assay type: cell-based; settings: listed cancer cell lines, FIG. 4
Protocol: FIG. 4 is a table summarizing the effect of Pseudomonas exotoxins on various cancer cell lines. Pseudomonas exotoxins are able to kill a variety of cancer cell lines. Listed cell lines were infected with Pseudomonas aeruginosa expressing either ExoU, ExoS, or ExoT in the presence of the cell death dye propidium iodide and observed by time-lapse videomicroscopy. Based on PI staining analysis, the mean time to death was determined for each cell line. […] (ND: no death).
For example, ExoU kills 100% of highly metastatic breast cancer cell line 4T1 within 2-3 hours, as indicated by propidium iodide (PI) staining (red) in FIG. 1.

HeLa cells = assay: Apoptosis and apoptotic compensatory proliferation signaling; assay type: cell-based
Source text: It has long been postulated that dying cells induce compensatory proliferation in neighboring cells as a means to control homeostasis and maintain tissue integrity but the players and the mechanisms involved in the compensatory proliferation signaling have remained unknown.

[3] = tested on: cancer cells that are resistant to its cytotoxicity; assay: G1 cell cycle arrest in cancer cells resistant to ExoT cytotoxicity; assay type: cell-based; settings: all cancer cells examined that are resistant to ExoT cytotoxicity
Source text: (v) Exotoxin T is also a potent anti-proliferative agent. […] This feature can be quite useful in combination therapy.

A375 cells [4] = assay: Mitotic events by time-lapse video microscopy after transfection; assay type: cell-based; settings: vector alone ~33%
Source text: A375 cells were transfected with ExoT, the GAP or ADPRT domain mutants or GFP vector alone. Cells were observed by time-lapse video microscopy. The number of mitotic events per cells in each field of view was counted.

[5] = synthetic substrate; cited from earlier work
A375 melanoma cells = assay: Proliferation by phase time-lapse videomicroscopy after transfection; assay type: cell-based
B16 cells = assay: Cell motility tracking by time-lapse video microscopy; assay type: cell-based; settings: tracked over a 10 h period, versus GFP transfected cells
Protocol: B16 cells were transfected with ExoT, the GAP or ADPRT domain mutants or GFP vector alone. Cells were observed by time-lapse video microscopy and tracked over a 10 h period using ImageJ (NIH). The mean track length during this time is shown. […] Importantly, ExoT could have an impact on reducing metastasis of cancer cells.

A375 cells [6] = assay type: cell-based; settings: versus GAP domain alone, GAP/ADPRT double mutant or GFP alone
Protocol: B16 and A375 cells were transfected with either GFP-fused ExoT, GAP and/or ADPRT domain mutants or GFP vector alone. Cytotoxicty was determined by positive propidium iodide staining.
We also discovered that ExoT is effective in killing the melanoma cell lines B16 and A375. B16 cells shown here were transfected with either a GFP expressing vector or ExoT directly fused to GFP. Cells were imaged in the presence of the cell death dye propidium iodide and observed by time-lapse videomicroscopy.

Rho, Rac, and Cdc42 = settings: cited from earlier work

| Substance | cytotoxicity compared with cisplatin [1] | speed of killing and potency (mean time to death by PI staining) [2] | apoptosis (HeLa cells; HeLa) | formation of compensatory complexes and induction of proliferation in surrounding cells (HeLa cells; apoptotic HeLa cells) | cell cycle arrest [3] | mitotic cells (A375 cells [4]) | ADPRT activity in vitro compared to ExoS [5] | cell division (A375 melanoma cells) | mean track length (B16 cells) | cytotoxicity (positive propidium iodide staining) (A375 cells [6]) | GAP activity in vitro (Rho, Rac, and Cdc42) |
| --- | --- | --- | --- | --- | --- | --- | --- | --- | --- | --- | --- |
| ExoS | more potent cytotoxicity than cisplatin | fastest killing and greatest potentcy |  |  |  |  |  |  |  |  |  |
| ExoT | more potent cytotoxicity than cisplatin | less potent and unable to kill some cell lines | induces potent apoptosis | interferes with the ability of apoptotic HeLa cells to form compensatory complexes and induce proliferation in the surrounding cells | complete G1cell cycle arrest | complete block of mitotic cells | 0.2% | blocked cell division | significantly shorter track lengths | significantly greater cytotoxicity |  |
| R149K: ExoT with the invariant arginine of the GAP domain mutated to lysine |  |  |  |  |  |  |  |  |  |  | complete loss of GAP activity |

Reference: US20160002667A1, “PSEUDOMONAS EXOTOXINS FOR CANCER TREATMENT” (RUSH UNIVERSITY MEDICAL CENTER, priority 2013, published 2016)
